Data reported in US11066455B2, “Tmem100 peptides and variants thereof and their use in treating or preventing diseases or conditions” (The Johns Hopkins University, priority 2014, dated 2021).
Entries after “also recorded” stand apart in the source; their conditions may differ. Where two headings read alike, the source gives them in different places. Peptide text beside a SMILES is read from it. * marks the point of attachment. Myristoyl = CCCCCCCCCCCCCC(=O)*

Columns and labels:
[1] = test system: neuropathic mechanical hypersensitivity in SNL rats; assay type: in vivo, rat
From the text: An modified L5 SNL model was produced as described in previously (He et al., 2014; Shechter et al., 2013). Male Sprague-Dawley rats (200-350 g, Harlan, Indianapolis, Ind.) were anesthetized with 2% isoflurane. The left L5 spinal nerve was ligated with a 6-0 silk suture and cut distally. The muscle layer was closed with 4-0 chromic gut suture and the skin closed with metal clips. For intrathecal catheter implantation, a small slit was cut in the atlanto-occipital membrane of rats, into which a saline-filled piece of PE-10 tubing (6-7 cm) was inserted (He et al., 2014). […] Hypersensitivity to punctuate mechanical stimulation was determined with the up-down method by using a series of von Frey filaments (0.38-15.1 g) applied for 4-6 seconds to the test area on the plantar surface of the hindpaw (Chaplan et al., 1994; He et al., 2014). The PWT was determined according to the formula provided by Dixon (Dixon, 1980). […] HC-030031 was purchased from Tocris Bioscience (Bristol, UK). Both drugs were dissolved in 10% dimethylsulfoxide (DMSO), 5% Tween 80 and 85% sterile saline solution. The final working solution which was injected by intrathecal route contained <1% DMSO. The number of animals used in each study was based on experience with similar studies and power analysis calculations. Animals were randomized to the different treatment groups and blinded the experimenter to drug treatment to reduce selection and observation bias. After the experiments were completed, no data point was excluded. STATISTICA 6.0 software (StatSoft, Inc., Tulsa, Okla.) was used to conduct all statistical analyses. The Tukey honestly significant difference (HSD) post-hoc test was used to compare specific data points. Bonferroni correction was applied for multiple comparisons. Two-tailed tests were performed, and data are expressed as mean±SEM; P<0.05 was considered significant in all tests.
(§1) The sequence from the last 28 amino acids of the C-terminus of the Tmem100-3Q mutant protein was synthesized and myristoylated at its N-terminus (myr-[…]-COOH) (SEQ ID NO: 8) by Twentyfirst Century Biochemicals. […] For the calcium imaging assay, the peptides were added to the calcium imaging buffer with a final concentration of 200 nM and incubated for at least […] at room temperature. For the mice behavioral assays, the peptides (5 μL, 2 mM) were injected subcutaneously in the hindpaw at least 30 minutes before testing. For the rat behavior assays, human T100-3Q (h-T100), a palmitoylated cell permeable peptide mutated based on the C terminus of human sequence in Tmem100, was applied. The sequence is Palmitoyl-[…]-COOH (SEQ ID NO: 7).

TRPA1 [2] = test system: T1, TRPA1; assay: Calcium imaging of HEK293T cells expressing TRPA1 and TRPV1 (MO or CA); assay type: cell-based
T1 construct: percentage of cells responsive to CA; other: shortened CPP 2 μM; CA 10 μM; HEK293 TRPA1+TRPV1; vs scrambled; percentage of cells responsive to MO; other: peptide 200 nM pre-treatment; 500 nM MO; HEK293T TRPA1+TRPV1; percentage of cells that respond to 100 nM MO and 10 μM CA; other: HEK293T TRPA1+TRPV1, Tmem100-3Q-transfected vs lacki; reduction in the percentage of cells responding to MO
Method: (§2) Calcium imaging assays were performed as previously described (Liu et al., 2009). Cells were loaded with 2 μM fura 2-acetomethoxy ester (Molecular Probes) for 30 min in the dark at room temperature or for 45 minutes at 37° C. for DRG and cell lines, respectively. After washing, cells were imaged at 340 and 380 nm excitation to detect intracellular free calcium under a fluorescent microscope (Nikon Eclipse TE2000-S) and Lambda 10B shutter (Sutter Instrument). The cells were bathed in calcium imaging buffer (pH 7.45, 130 mM NaCl, 3 mM KCl, 2.5 mM CaCl2, 10 mM HEPES, 10 mM glucose, 1.2 mM NaHCO3, with sucrose to increase osmolarity to 290 mOsm). The reagents and buffers were applied through a gravity perfusion system at a rate of […], including mustard oil (Sigma 377430), cinnamaldehyde (Sigma C80687), menthol (Sigma M2780), and capsaicin (Sigma M2028). Cells with high baseline 340/380 values (>1.5) were excluded for analysis. For DRG neurons, IB4 staining was performed in the chamber with the dilution of 1:200 (Molecular Probes 121412) for 160 seconds before washing off at the end of each test. Images were processed and analyzed with NIS-Elements BR 2.30 software (Nikon). A responsive cell was defined as one that with greater than a 20% increase in the 340/380 ratio above the baseline. Intracellular calibration for calcium was performed as previously described (Akopian et al., 2007). The data was analyzed with the experimenter blinded to the genotypes or constructs transfected.
(§3) DRG from 3 to 4-week old mice were collected in cold DH10 medium (90% DMEM/F-12, 10% FBS, 100 U/ml penicillin, and 100 μg/ml Streptomycin, Gibco) and treated with enzyme solution in HBSS containing collagenase (1.65 mg/mL, Worthington CLS I) and dispase (3.55 mg/mL, GIBCO 17105-041) at 37° C. for 30 minutes. After trituration and centrifugation, cells were resuspended in DH10, plated on glass coverslips coated with poly-D-lysine (0.5 mg/ml, Stoughton, Mass.) and laminin (10 μg/ml, Invitrogen), and cultured overnight in an incubator at 37° C. The neurons were tested within 24 hours. HEK293T, COS-7, and CHO cells were cultured in a medium consisting of 90% DMEM, 10% FBS, 100 U/mL penicillin, and 100 μg/ml Streptomycin. GlutaMAX (Gibco 35050-061) was also added for CHO cells. For calcium imaging, the cells were plated on glass coverslips coated with poly-D-lysine (0.5 mg/ml, Stoughton, Mass.). In the HEK cell studies the denominator is the cells expressing both TRPA1, TRPV1, and the designated constructs (i.e. Tmem100 or Tmem100-3Q mutant). mCherry:TRPV1:Tmem100 was transfected in 1:8:8 ratio into TRPA1 stable cell line (obtained from N. Tigue from GlaxoSmithKline) and used mCherry as the marker for the cells expressing the constructs 18 hours after transfection with Lipofectamine 2000. The transfection efficiency for Tmem100+TRPV1+TRPA1 triple-positive cells is 27±3%. This efficiency was determined by mCherry(+) divided by total number of cells in the bright fields.
as §1

[3] = test system: paclitaxel (Taxol)-induced mechanical hyperalgesia in wild-type mice; assay: Paclitaxel-induced mechanical hyperalgesia; assay type: in vivo, mouse; details: day 7 post paclitaxel; intradermal injection of T100-Mut
Method: (§4) Mice were placed in a transparent plastic box (4.5×5×10 cm) on a metal mesh and acclimatized for 30 minutes prior to testing. Each mouse was tested more than 5 times at a specific force manually, and the threshold was determined by the lowest force needed to elicit responses more than 50% of the time.
Mice were injected with paclitaxel (Sigma T7191) intraperitoneally at the dose of 6 mg/kg, as previously described (Materazzi et al., 2012). Seven days after paclitaxel injection, the mice were assayed with Von Frey methods for mechanical hyperalgesia, both before and four hours after injection of cell permeable peptides.

[4] = test system: MO-induced pain in TRPV1-/- mice; assay: Mustard oil injection in TRPV1-/- mice; assay type: in vivo, mouse
Method: as §4
Mice were injected intradermally in the hind paw with 6 μL of 0.2% mustard oil (Sigma-Aldrich 377430) with Hamilton needles (80300). The mice were placed in a plexiglass cylinder, and the total time spent licking and flinching was recorded for the first 10 minutes after injection. Thirty and sixty minutes after injection, the mice were assayed with von Frey filaments for mechanical hyperalgesia.
The sequence from the last 28 amino acids of the C-terminus of the Tmem100-3Q mutant protein was synthesized and myristoylated at its N-terminus (myr-[…]-COOH) (SEQ ID NO: 8) by Twentyfirst Century Biochemicals. […] For the calcium imaging assay, the peptides were added to the calcium imaging buffer with a final concentration of 200 nM and incubated for at least […] at room temperature. For the mice behavioral assays, the peptides (5 μL, 2 mM) were injected subcutaneously in the hindpaw at least 30 minutes before testing. For the rat behavior assays, human T100-3Q (h-T100), a palmitoylated cell permeable peptide mutated based on the C terminus of human sequence in Tmem100, was applied. […]

[5] = target: TRPA1 (expressed in heterologous cells: CHO, HEK293T); assay: cell-based or functional assay
Sequence of TRPA1 (expressed in heterologous cells: CHO, HEK293T) (Q8BLA8 whole entry): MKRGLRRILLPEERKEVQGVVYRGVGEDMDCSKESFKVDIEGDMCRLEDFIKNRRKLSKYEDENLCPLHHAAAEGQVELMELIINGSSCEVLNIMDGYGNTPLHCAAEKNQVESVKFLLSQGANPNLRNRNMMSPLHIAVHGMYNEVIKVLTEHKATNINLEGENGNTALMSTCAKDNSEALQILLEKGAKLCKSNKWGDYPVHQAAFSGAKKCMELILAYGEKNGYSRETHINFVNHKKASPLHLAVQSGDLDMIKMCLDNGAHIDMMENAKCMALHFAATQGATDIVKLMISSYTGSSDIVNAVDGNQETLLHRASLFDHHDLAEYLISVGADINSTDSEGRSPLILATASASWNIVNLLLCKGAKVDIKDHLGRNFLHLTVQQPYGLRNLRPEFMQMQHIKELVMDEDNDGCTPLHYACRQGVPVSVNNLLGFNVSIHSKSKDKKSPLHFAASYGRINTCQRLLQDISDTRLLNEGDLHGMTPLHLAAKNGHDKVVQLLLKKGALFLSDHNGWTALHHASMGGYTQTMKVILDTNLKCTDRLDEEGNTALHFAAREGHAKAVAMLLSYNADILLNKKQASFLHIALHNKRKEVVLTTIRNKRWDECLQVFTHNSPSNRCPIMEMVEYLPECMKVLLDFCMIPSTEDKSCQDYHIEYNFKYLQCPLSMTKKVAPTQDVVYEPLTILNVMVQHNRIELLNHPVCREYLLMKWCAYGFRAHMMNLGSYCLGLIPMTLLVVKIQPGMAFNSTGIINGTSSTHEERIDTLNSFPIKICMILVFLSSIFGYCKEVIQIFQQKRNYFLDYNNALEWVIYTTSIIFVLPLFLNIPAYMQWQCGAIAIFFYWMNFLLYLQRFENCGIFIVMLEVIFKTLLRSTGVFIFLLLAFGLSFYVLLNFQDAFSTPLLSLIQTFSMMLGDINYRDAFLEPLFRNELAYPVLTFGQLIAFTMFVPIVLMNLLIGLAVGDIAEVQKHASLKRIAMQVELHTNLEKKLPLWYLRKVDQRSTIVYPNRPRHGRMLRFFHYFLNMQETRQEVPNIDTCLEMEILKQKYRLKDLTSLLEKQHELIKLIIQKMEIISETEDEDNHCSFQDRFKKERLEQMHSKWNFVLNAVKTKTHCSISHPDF

TRPA1 [6] = target: T2, TRPA1 (UniProt O75762); assay: Calcium imaging of HEK293T cells expressing TRPA1 and TRPV1 (MO or CA); assay type: cell-based
T2 construct: other: cells expressing A1+V1; other: cells expressing A1+V1+Tmem100
Method: as §2, §3, §1

[7] = test system: ongoing neuropathic pain in SNL rats; assay: Conditioned place preference test for ongoing pain in SNL rats; assay type: in vivo, rat; details: i.p.
From the text: Ongoing, or spontaneous, pain, which is most bothersome to patients, is difficult to treat and difficult to study in animals. The conditioned place preference test has been successfully developed to reveal the presence of non-evoked, ongoing pain and pain relief based on the preference of an animal for the context paired with a pain-relief treatment. The conditioned place preference can also capture the aversive aspects of pain. Strikingly, many studies have shown that the rodent conditioned place preference test accurately reflects the effectiveness of human clinical treatments. Therefore, this test is a powerful approach to investigate the potential effectiveness of new treatments and mechanisms for relief of ongoing pain. Two previous studies have examined the role of TRPA1 in ongoing pain by the conditioned place preference test. […] Because the antagonists used in those studies (HC030031 and Chem5861528) target TRPA1 monomers, it is possible that T100-Mut can inhibit ongoing pain by modulating the TRPA1/V1 complex. This possibility was tested in rodents with SNL-induced ongoing pain using the conditioned place preference test. […] Systemic administration of gabapentin, an analgesic that is known to alleviate neuropathic pain, was used as a positive control (FIG. 16B).

In the case of `CCCCCCCCCCCCCC(=O)N[C@@H](Cc1c[nH]c2ccccc12)C(=O)N[C@@H](CCCCN)C(=O)N[C@H](C(=O)N[C@@H](CCCNC(=N)N)C(=O)N[C@@H](CCC(N)=O)C(=O)N[C@@H](CCCNC(=N)N)C(=O)N[C@@H](CC(N)=O)C(=O)N[C@@H](CCCCN)C(=O)N[C@@H](CCCCN)C(=O)N[C@H](C(=O)N[C@@H](CCC(N)=O)C(=O)N[C@@H](CCC(N)=O)C(=O)N[C@@H](CCC(N)=O)C(=O)N[C@@H](CCC(=O)O)C(=O)N[C@@H](CO)C(=O)N[C@@H](CCC(N)=O)C(=O)N[C@H](C(=O)N[C@@H](C)C(=O)N[C@@H](CC(C)C)C(=O)N[C@H](C(=O)N[C@H](C(=O)N[C@@H](CC(N)=O)C(=O)N[C@@H](CCC(N)=O)C(=O)N[C@@H](CCCNC(=N)N)C(=O)N[C@@H](CS)C(=O)N[C@@H](CC(C)C)C(=O)N[C@@H](Cc1ccccc1)C(=O)N[C@@H](C)C(=O)O)C(C)C)C(C)C)[C@@H](C)O)C(C)C)C(C)C` [T100-Mut] (Myristoyl-WKVRQRNKKVQQQESQTALVVNQRCLFA-OH), the “efficacy and potency of inhibiting neuropathic pain compared with HC-030031” value ([1]; SNL rats, intrathecal) is reported as “comparable or better efficacy and potency”, the EC50 ([1]; rat, in vivo) is reported as 29.3 µM and the “reduction in the percentage of cells responding to MO” value (TRPA1 [2]; heterologous system, T100-Mut treatment vs scrambled) is reported as 65%. The “percentage of cells responsive to MO” value (TRPA1 [2]; peptide 200 nM pre-treatment, 500 nM MO, HEK293T TRPA1+TRPV1) was 6±2.4%, the paclitaxel-induced mechanical hyperalgesia [3] was “attenuated; also recorded: alleviated” and the “MO-induced acute pain in TRPV1-/- mice” value [4] was “did not perturb; also recorded: no effect”. The “MO-induced mechanical hyperalgesia in TRPV1-/- mice” value [4] was “did not perturb; also recorded: no effect”.

Work on “TRPV1 (expressed in heterologous cells: CHO, HEK293T) (receptor)” yielded an MO (10 µM)-evoked Ca2+ influx, CHO cells, with Tmem100-3Q co-expressed (1:1:4) [5] of 321 nM, an MO (10 µM)-gated whole-cell current density, CHO cells, with Tmem100-3Q co-expressed (1:1:4) [5] of 39.2 pA/pF and an MO (10 µM)-induced single-channel activity (NPo), CHO cells, with Tmem100-3Q co-expressed (1:1:4) [5] of 0.16. For the same molecule, the MO (10 µM)-induced single-channel activity (NPo), CHO cells, with wild-type Tmem100 co-expressed (1:1:4) [5] was 1.05.

For `CC(C)c1ccc(NC(=O)Cn2cnc3c2c(=O)n(C)c(=O)n3C)cc1` [HC-030031, reference compound], the “contralateral PWT after drug injection” value ([1]; intrathecal 10 μl) was “did not change significantly”, the “ipsilateral paw withdrawal threshold (PWT) vs pre-drug” value ([1]; intrathecal 10 μl, h-T100 10-100 μM, HC-030031 10-200 μM, scrambled 100 μM) was “increased” and the EC50 ([1]; intrathecal, 10 μl, SNL rats, read-out: EC50 for inhibiting pain) was 58.2 µM.

In the case of `O=CC=Cc1ccccc1` [CA, cinnamaldehyde, reference compound], the EC50 (TRPA1 [6]; cells expressing A1+V1) is reported as 57 µM and the EC50 (TRPA1 [6]; cells expressing A1+V1+Tmem100) is reported as 21 µM.

With `NCC1(CC(=O)O)CCCCC1` [gabapentin, reference compound] the “conditioned place preference: time in gabapentin-paired chamber, SNL rats” value ([7]; 60 mg/kg, saline-paired chamber as comparison) was “significantly increased” and the “chamber preference in sham-operated rats” value ([7]; gabapentin 60 mg/kg, sham-operated) was “did not induce chamber preference”.
